# Assay results from US9399649B2, “Compounds for treating spinal muscular atrophy” (PTC Therapeutics Inc., priority 2012, dated 2016).
# What was measured:
# [1] = tested on: Smn protein; experiment: Smn protein assay in cultured cells (SMN HTRF); assay type: cell-based, human; details: SMA patient fibroblast cells (GM03813), 48 hours; for maximum fold (Fold) increase of Smn protein: 7-point concentration data, relative to vehicle control; for EC1.5x for Smn protein expression: 7-point concentration curve, concentration producing 1.5 times Smn protein vs DMSO vehicle
# Experimental: The SMN HTRF (homogeneous time resolved fluorescence) assay is used to quantify the level of Smn protein in SMA patient fibroblast cells treated with test compounds.
# Cells are thawed and cultured in DMEM-10% FBS for 72 hours. Cells are trypsinized, counted and re-suspended to a concentration of 25,000 cells/mL in DMEM-10% FBS. The cell suspensions are plated at 5,000 cells per well in a 96 well microtiter plate and incubated for 3 to 5 hours. […] Test compounds are serially diluted 3.16-fold in 100% DMSO to generate a 7-point concentration curve. 1 μL of test compound solution is transferred to cell-containing wells and cells are incubated for 48 hours in a cell culture incubator (37° C., 5% CO2, 100% relative humidity). Triplicate samples are set up for each test compound concentration. After 48 hours, the supernatant is removed from the wells and 25 μL of the RIPA lysis buffer, containing protease inhibitors, is added to the wells and incubated with shaking at room temperature for 1 hour. 25 μL of the diluent is added and then 35 μL of the resulting lysate is transferred to a 384-well plate, where each well contains 5 μL of the antibody solution (1:100 dilution of anti-SMN d2 and anti-SMN kryptate in SMN reconstitution buffer). The plate is centrifuged for 1 minute to bring the solution to the bottom of the wells, then incubated overnight at room temperature. Fluorescence for each well of the plate at 665 nm and 620 nm is measured on an EnVision multilabel plate reader (Perkin-Elmer).
# The normalized fluorescence signal is calculated for each sample, Blank and vehicle control well by dividing the signal at 665 nm by the signal at 620 nm. Normalizing the signal accounts for possible fluorescence quenching due to the matrix effect of the lysate. The ΔF value (a measurement of Smn protein abundance as a percent value) for each sample well is calculated by subtracting the normalized average fluorescence for the Blank control wells from the normalized fluorescence for each sample well, then dividing this difference by the normalized average fluorescence for the Blank control wells and multiplying the resulting value by 100. The ΔF value for each sample well represents the Smn protein abundance from test compound-treated samples. The ΔF value for each sample well is divided by the ΔF value for the vehicle control wells to calculate the fold increase in Smn protein abundance relative to the vehicle control.
# [2] = tested on: full length SMN2 minigene mRNA containing SMN2 exon 7; experiment: SMN2 minigene mRNA splicing RT-qPCR assay in cultured cells; assay type: cell-based, human; details: Homo sapiens, HEK293-H; HEK293H cells stably transfected with SMN2-A minigene, 24 hours, 7-point concentration curve; concentration giving 1.5-fold full length SMN2 mRNA vs vehicle; read-out: EC1.5x for production of full length SMN2 mRNA
# Experimental: The reverse transcription-quantitative PCR-based (RT-qPCR) assay is used to quantify the level of the full length SMN2 minigene mRNA containing SMN2 exon 7 in a HEK293H cell line stably transfected with said minigene and treated with a test compound.
# HEK293H cells stably transfected with the SMN2-A minigene construct described above (10,000 cells/well) are seeded in 200 ut, of cell culture medium (DMEM plus 10% FBS, with 200 μg/mL hygromycin) in 96-well flat-bottom plates and the plate is immediately swirled to ensure proper dispersal of cells, forming an even monolayer of cells. Cells are allowed to attach for at least 4-6 hours. Test compounds are serially diluted 3.16-fold in 100% DMSO to generate a 7-point concentration curve. A solution of test compound (1 μL, 200× in DMSO) is added to each cell-containing well and the plate is incubated for 24 hours in a cell culture incubator (37° C., 5% CO2, 100% relative humidity). 2 replicates are prepared for each test compound concentration. The cells are then lysed in Cells-To-Ct lysis buffer and the lysate is stored at −80° C.
# Primer SMN Forward A (SEQ ID NO. 1) hybridizes to a nucleotide sequence in exon 7 (nucleotide 22 to nucleotide 40), primer SMN Reverse A (SEQ ID NO. 2) hybridizes to a nucleotide sequence in the coding sequence of Firefly luciferase, SMN Probe A (SEQ ID NO. 3) hybridizes to a nucleotide sequence in exon 7 (nucleotide 50 to nucleotide 54) and exon 8 (nucleotide 1 to nucleotide 21). The combination of these three oligonucleotides detects only SMN1 or SMN2 minigenes (RT-qPCR) and will not detect endogenous SMN1 or SMN2 genes.
# The SMN forward and reverse primers are used at final concentrations of 0.4 μM. The SMN probe is used at a final concentration of 0.15 μM. The GAPDH primers are used at final concentrations of 0.2 μM and the probe at 0.15 μM.
# The SMN2-minigene GAPDH mix (15 μL total volume) is prepared by combining 7.5 μL of 2×RT-PCR buffer, 0.4 μL of 25×RT-PCR enzyme mix, 0.75 μL of 20×GAPDH primer-probe mix, 4.0075 μL of water, 2 μL of 10-fold diluted cell lysate, 0.06 μL of 100 μM SMN forward primer, 0.06 μL of 100 μM SMN reverse primer, and 0.225 μL of 100 μM SMN probe.
# PCR is carried out at the following temperatures for the indicated time: Step 1: 48° C. (15 min); Step 2: 95° C. (10 min); Step 3: 95° C. (15 sec); Step 4: 60° C. (1 min); then repeat Steps 3 and 4 for a total of 40 cycles.
# Each reaction mixture contains both SMN2-A minigene and GAPDH primersprobe sets (multiplex design), allowing simultaneous measurement of the levels of two transcripts.
# Two SMN spliced products are generated from the SMN2 minigene. The first spliced product containing exon 7, corresponding to full length SMN2 mRNA, is referred to herein using the term “SMN2 minigene FL.” The second spliced product lacking exon 7 is referred to herein using the term “SMN2 minigene Δ7.”
# The increase of SMN2 minigene FL mRNA relative to that in cells treated with vehicle control is determined from real-time PCR data using a modified ΔΔCt method (as described in Livak and Schmittgen, Methods, 2001, 25:402-8). The amplification efficiency (E) is calculated from the slope of the amplification curve for SMN2 minigene FL and GAPDH individually. The abundances of SMN2 minigene FL and GAPDH are then calculated as (1+E)^−Ct, where Ct is the threshold value for each amplicon. The abundance of SMN2 minigene FL is normalized to GAPDH abundance. The normalized SMN2 minigene FL abundance from test compound-treated samples is then divided by normalized SMN2 minigene FL abundance from vehicle-treated cells to determine the level of SMN2 FL mRNA relative to vehicle control.
SMILES,melting point,maximum fold (Fold) increase of Smn protein [1],EC (1.5-fold) [2] [µM],EC1.5x for Smn protein expression [1]
"COc1ccccc1-c1cc2ccc(N3C[C@@H](C)N[C@@H](C)C3)cc2c(=O)o1 [Cpd 23, 7-[(3R,5S)-3,5-dimethylpiperazin-1-yl]-3-(2-methoxyphenyl)-1H-isochromen-1-one]",154 to 157 °C,* (A maximum fold increase of ≦1.2 is indicated by one star (*)),1 to 3,
"COc1ccc(-c2cc3ccc(N4CCNCC4)cc3c(=O)o2)cc1 [Cpd 24, 3-(4-methoxyphenyl)-7-(piperazin-1-yl)-1H-isochromen-1-one]",235 to 238 °C,*** (a fold increase between >1.35 and ≦1.5 is indicated by three stars (***)),0.1 to 0.3,*** (an EC1.5× between >0.3 nM and ≦1 nM is indicated by three stars (***))
"COc1ccc(-c2cc3ccc(N4CCN(C)CC4)cc3c(=O)o2)cc1 [Cpd 25, 3-(4-methoxyphenyl)-7-(4-methylpiperazin-1-yl)-1H-isochromen-1-one]",166 to 168 °C,* (A maximum fold increase of ≦1.2 is indicated by one star (*)),1 to 3,
"O=c1oc(-c2cn3ccccc3n2)cc2ccc(N3CCNCC3)cc12 [Cpd 26, 3-(imidazo[1,2-a]pyridin-2-yl)-7-(piperazin-1-yl)-1H-isochromen-1-one]",248 °C (dec.),* (A maximum fold increase of ≦1.2 is indicated by one star (*)),1 to 3,
"CN1CCN(c2ccc3cc(-c4cn5ccccc5n4)oc(=O)c3c2)CC1 [Cpd 27, 3-(imidazo[1,2-a]pyridin-2-yl)-7-(4-methylpiperazin-1-yl)-1H-isochromen-1-one]",252 to 254 °C,* (A maximum fold increase of ≦1.2 is indicated by one star (*)),3 to 30,
"O=c1oc(-c2cn3ccsc3n2)cc2ccc(N3CCNCC3)cc12 [Cpd 28, 3-(imidazo[2,1-b][1,3]thiazol-6-yl)-7-(piperazin-1-yl)-1H-isochromen-1-one]",224 to 226 °C,*** (a fold increase between >1.35 and ≦1.5 is indicated by three stars (***)),0.3 to 1,
"COc1ccc(-c2cc3ccc(N4C[C@@H](C)N[C@@H](C)C4)cc3c(=O)o2)cc1 [Cpd 29, 7-[(3R,5S)-3,5-dimethylpiperazin-1-yl]-3-(4-methoxyphenyl)-1H-isochromen-1-one]",109 to 110 °C,* (A maximum fold increase of ≦1.2 is indicated by one star (*)),0.3 to 1,
"COc1ccc(-c2cc3ccc(N4CCN[C@@H](C)C4)cc3c(=O)o2)cc1OC [Cpd 30, 3-(3,4-dimethoxyphenyl)-7-[(3S)-3-methylpiperazin-1-yl]-1H-isochromen-1-one]",155 to 157 °C,**** (a fold increase between >1.5 and ≦1.65 is indicated by four stars (****)),≤ 0.1,**** (an EC1.5×≦0.3 nM is indicated by four stars (****))
"C[C@H]1CN(c2ccc3cc(-c4ccccn4)oc(=O)c3c2)CCN1 [Cpd 34, 7-[(3S)-3-methylpiperazin-1-yl]-3-(pyridin-2-yl)-1H-isochromen-1-one]",343 to 345 °C,*** (a fold increase between >1.35 and ≦1.5 is indicated by three stars (***)),0.3 to 1,* (An EC1.5× for Smn protein expression between >3 μM and <10 μM is indicated by one star (*))

# Continued, in another order:
melting point,SMILES,maximum fold (Fold) increase of Smn protein [1],EC (1.5-fold) [2] [µM],EC1.5x for Smn protein expression [1]
129 to 131 °C,"COc1ccc(-c2cc3ccc(N4CCN[C@@H](C)C4)cc3c(=O)o2)cc1 [Cpd 31, 3-(4-methoxyphenyl)-7-[(3S)-3-methylpiperazin-1-yl]-1H-isochromen-1-one]",**** (a fold increase between >1.5 and ≦1.65 is indicated by four stars (****)),≤ 0.1,"** (an EC1.5× between >1 μM, and ≦3 nM is indicated by two stars (**))"
143 to 146 °C,"COc1ccccc1-c1cc2ccc(N3CCN[C@@H](C)C3)cc2c(=O)o1 [Cpd 32, 3-(2-methoxyphenyl)-7-[(3S)-3-methylpiperazin-1-yl]-1H-isochromen-1-one]",** (a fold increase between >1.2 and ≦1.35 is indicated by two stars (**)),0.3 to 1,
236 to 238 °C,"CN1CCN(c2ccc3cc(-c4cn5ccsc5n4)oc(=O)c3c2)CC1 [Cpd 33, 3-(imidazo[2,1-b][1,3]thiazol-6-yl)-7-(4-methylpiperazin-1-yl)-1H-isochromen-1-one]",* (A maximum fold increase of ≦1.2 is indicated by one star (*)),1 to 3,
175 to 177 °C,"C[C@H]1CN(c2ccc3cc(-c4ccc5c(c4)OCCO5)oc(=O)c3c2)CCN1 [Cpd 35, 3-(2,3-dihydro-1,4-benzodioxin-6-yl)-7-[(3S)-3-methylpiperazin-1-yl]-1H-isochromen-1-one]",* (A maximum fold increase of ≦1.2 is indicated by one star (*)),0.3 to 1,
236 to 238 °C,"C[C@H]1CN(c2ccc3cc(-c4nc5ccccc5s4)oc(=O)c3c2)CCN1 [Cpd 36, 3-(1,3-benzothiazol-2-yl)-7-[(3S)-3-methylpiperazin-1-yl]-1H-isochromen-1-one]",* (A maximum fold increase of ≦1.2 is indicated by one star (*)),3 to 30,
